Paper PMC5729930, “Bitopic fluorescent antagonists of the A2A adenosine receptor based on pyrazolo[4,3-e][1,2,4]triazolo[1,5-c]pyrimidin-5-amine functionalized congeners” (MedChemComm, 2017)
“And” between values parts separate entries of the source, which are not always exact repeats. Identical values can stand only once.

Assays:
A3AR = target: T1, A3AR (Homo sapiens, UniProt P0DMS8); assay: Competition radioligand binding, hA3AR ([125I]I-AB-MECA); conditions: [125I]I-AB-MECA 0.2 nM; for inhibition at 10 µM: percent inhibition at 10 μM, read-out: % inhib, A3
T1 construct: expressed in transfected cells
T1 sequence (P0DMS8 1-318): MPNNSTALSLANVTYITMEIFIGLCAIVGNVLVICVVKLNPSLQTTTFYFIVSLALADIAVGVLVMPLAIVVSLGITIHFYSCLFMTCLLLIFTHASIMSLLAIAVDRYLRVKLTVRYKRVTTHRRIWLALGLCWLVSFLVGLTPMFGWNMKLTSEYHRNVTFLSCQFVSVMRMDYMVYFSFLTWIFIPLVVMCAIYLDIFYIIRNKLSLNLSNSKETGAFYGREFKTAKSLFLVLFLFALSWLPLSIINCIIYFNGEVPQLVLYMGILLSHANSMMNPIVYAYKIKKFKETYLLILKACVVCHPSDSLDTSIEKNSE
Protocol: (§1) The affinity of the amine congeners and other antagonists was measured using standard radioligand binding assays for hA1, A2A and A3ARs (Table 1).[1],[13],[14],[22] Membranes of human embryonic kidney (HEK)293 cells expressing the AR of interest were used in the assay. Primary amine congeners 6a–6d containing spacers of 2–5 methylenes were similar in terms of hA2AAR affinity (Ki 6–9 nM), with the butylamino congener 6c displaying the highest A2AAR selectivity in the series. The affinity of this compound for the hA3AR was determined to be 6.0 μM, with only slightly higher hA1AR affinity. Homologation to 6 methylenes in compound 6e lowered A2AAR affinity. […] No dependence of the affinity on the chain length was evident when comparing AlexaFluor647 conjugates 9 and 10. […]
(§2) Radioligand binding assays: Cell membranes were prepared as reported.1
(§3) Binding assays were carried out using standard radioligands and membrane preparations from HEK-293 cells stably expressing the human (h) A1, A2A or A3ARs or mouse (m) A1, A2A or A3ARs. The radioligands used were: A1AR, [3H]8-cyclopentyl-1,3-dipropylxanthine 14; A2AAR, [3H]2; A3AR, [125I]N6-(4-amino-3-iodobenzyl)adenosine-5′-N-methyluronamide 16. The radioligand for archival A2AAR affinity data presented in Table 1 was [3H]2-[p-(2-carboxyethyl)phenyl-ethylamino]-5′-N-ethylcarboxamidoadenosine 15. Nonspecific binding was determined using 10 µM 8-[4-[[[[(2-aminoethyl)amino]carbonyl]methyl]oxy]phenyl]-1,3-dipropylxanthine 17 (A1AR and A2AAR) or 10 µM adenosine-5′-N-ethyluronamide 18 (A3AR). HEK-293 cells expressing recombinant mA1, A2A, or A3AR […]
(§4) Protein was determined as reported.2 In all the binding experiments, IC50 values and Ki values were calculated using GraphPad Prism software (San Diego, CA). Values are expressed as mean±SEM. […]
(§5) Med. Chem. Comm., 2015, 6:555-563.
(§6) 2. Bradford, M. M. A rapid and sensitive method for the quantitation of microgram quantities of protein utilizing the principle of protein -dye binding. Anal. Biochem. 1976, 72, 248-254.

mA1AR = target: T2, mA1AR (Mus musculus, UniProt Q60612); assay: Competition radioligand binding, mA1AR; conditions: for inhibition at 10 µM: mouse A1AR, percent inhibition at 10 μM
T2 construct: expressed in transfected cells; host or cells: HEK-293
T2 sequence (Q60612 1-326): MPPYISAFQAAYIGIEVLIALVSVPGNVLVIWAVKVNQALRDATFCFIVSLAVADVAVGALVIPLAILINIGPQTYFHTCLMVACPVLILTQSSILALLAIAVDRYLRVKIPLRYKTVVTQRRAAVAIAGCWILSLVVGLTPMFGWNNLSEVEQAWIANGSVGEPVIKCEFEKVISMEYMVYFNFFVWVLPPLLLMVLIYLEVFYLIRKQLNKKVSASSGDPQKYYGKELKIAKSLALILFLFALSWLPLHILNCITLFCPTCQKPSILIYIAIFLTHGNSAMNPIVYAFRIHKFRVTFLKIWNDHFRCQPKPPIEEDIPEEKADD
Protocol: as §1, §2, §3, §4, §5, §6

mA2AAR = target: T3, mA2AAR (Mus musculus, UniProt Q60613); assay: Competition radioligand binding, mA2AAR; conditions: mouse A2AAR, HEK-293 membranes, mean ± SEM; read-out: Affinity, Ki, A2A (m) (converted)
T3 construct: expressed in transfected cells; host or cells: HEK-293
T3 sequence (Q60613 whole entry): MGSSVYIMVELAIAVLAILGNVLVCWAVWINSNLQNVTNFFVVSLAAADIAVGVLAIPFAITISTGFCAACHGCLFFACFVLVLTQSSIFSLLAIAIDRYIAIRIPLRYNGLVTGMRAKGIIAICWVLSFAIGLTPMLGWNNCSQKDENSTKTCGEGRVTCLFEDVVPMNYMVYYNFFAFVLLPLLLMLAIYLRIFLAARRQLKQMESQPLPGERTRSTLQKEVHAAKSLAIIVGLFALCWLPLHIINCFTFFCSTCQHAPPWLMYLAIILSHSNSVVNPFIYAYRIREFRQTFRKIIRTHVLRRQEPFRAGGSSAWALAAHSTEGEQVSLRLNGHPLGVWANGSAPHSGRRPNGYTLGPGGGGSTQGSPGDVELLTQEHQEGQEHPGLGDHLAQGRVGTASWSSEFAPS
Protocol: (§7) The affinity of the amine congeners and other antagonists was measured using standard radioligand binding assays for hA1, A2A and A3ARs (Table 1).[1],[13],[14],[22] Membranes of human embryonic kidney (HEK)293 cells expressing the AR of interest were used in the assay. Primary amine congeners 6a–6d containing spacers of 2–5 methylenes were similar in terms of hA2AAR affinity (Ki 6–9 nM), with the butylamino congener 6c displaying the highest A2AAR selectivity in the series. The affinity of this compound for the hA3AR was determined to be 6.0 μM, with only slightly higher hA1AR affinity. Homologation to 6 methylenes in compound 6e lowered A2AAR affinity. […] No dependence of the affinity on the chain length was evident when comparing AlexaFluor647 conjugates 9 and 10.
(§8) Cell culture for membrane binding assays and flow cytometry: HEK-293 cells stably expressing the A2AAR were grown in Dulbecco’s Modified Eagle’s Medium (DMEM) with 10% FBS, 100 units/ml penicillin, […] streptomycin, 2 mM L-glutamine and 0.500 mg/mL G418 Sulfate (Geneticin). […]
as §2, §3, §4, §5, §6

A2AAR = target: T4, A2AAR (Homo sapiens, UniProt P29274); assay: Competition radioligand binding, hA2AAR ([3H]ZM241385 or [3H]CGS21680); conditions: for fold weaker A2AAR affinity with respect to the parent amino derivative 6c / Ki: human A2AAR; for Ki: HEK-293 membranes, [3H]ZM241385 1.0 nM, 1 h 25 °C, mean ± SEM, read-out: Affinity, Ki, A2A
T4 construct: expressed in transfected cells
T4 sequence (P29274 whole entry): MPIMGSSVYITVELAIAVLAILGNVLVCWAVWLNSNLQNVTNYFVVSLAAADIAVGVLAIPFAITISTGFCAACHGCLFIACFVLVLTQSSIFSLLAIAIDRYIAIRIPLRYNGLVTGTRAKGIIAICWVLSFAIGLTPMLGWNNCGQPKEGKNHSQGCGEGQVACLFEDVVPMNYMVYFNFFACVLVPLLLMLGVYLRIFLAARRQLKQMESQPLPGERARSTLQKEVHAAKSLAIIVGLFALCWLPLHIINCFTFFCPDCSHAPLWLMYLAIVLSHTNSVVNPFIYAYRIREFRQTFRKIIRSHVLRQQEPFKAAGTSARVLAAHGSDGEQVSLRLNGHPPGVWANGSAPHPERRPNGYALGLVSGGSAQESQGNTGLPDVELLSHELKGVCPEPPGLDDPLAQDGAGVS
Protocol: as §7
Fig. 1 Antagonist radioligand ([^3H]2, 1.0 nM) binding inhibition curves for the hA2AAR for four antagonist fluorescent conjugates. Compound numbers: MRS7322 9, MRS7395 10, MRS7396 11 and MRS7416 12. Membranes from HEK-293 cells expressing the hA2AAR were used, and their incubation was performed for 1 h at 25 °C. Results are expressed as the mean ± SEM.
as §8, §2, §3, §4, §5, §6

mA3AR = target: T5, mA3AR (Mus musculus, UniProt Q61618); assay: Competition radioligand binding, mA3AR; conditions: for inhibition at 10 µM: mouse A3AR, percent inhibition at 10 μM, read-out: % inhib, A3 (m) (converted)
T5 construct: expressed in transfected cells; host or cells: HEK-293
T5 sequence (Q61618 1-319): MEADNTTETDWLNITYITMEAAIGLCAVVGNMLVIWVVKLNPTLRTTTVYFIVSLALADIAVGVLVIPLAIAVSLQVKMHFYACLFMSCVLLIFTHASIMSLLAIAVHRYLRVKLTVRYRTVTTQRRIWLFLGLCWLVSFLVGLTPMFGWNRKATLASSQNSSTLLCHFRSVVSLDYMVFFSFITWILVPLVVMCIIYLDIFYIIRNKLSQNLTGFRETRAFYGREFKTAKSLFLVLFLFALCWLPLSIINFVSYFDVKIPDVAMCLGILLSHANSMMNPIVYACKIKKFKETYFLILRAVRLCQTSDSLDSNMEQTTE
Protocol: as §1, §2, §3, §4, §5, §6

| inhibition at 10 µM (A3AR) | inhibition at 10 µM (mA1AR) | Ki (mA2AAR) | fold weaker A2AAR affinity with respect to the parent amino derivative 6c (A2AAR) | Ki (A2AAR) | inhibition at 10 µM (mA3AR) | Ki (A3AR; HEK-293 membranes, 1 h 25 °C, mean ± SEM, read-out: Affinity, Ki, A3) | binding to the mA1AR (mA1AR; result in words) | A2AAR selectivity compared to the hA1AR (A2AAR; hA2AAR vs hA1AR binding) | A2AAR selectivity compared to the hA3AR (A2AAR; hA2AAR vs hA3AR binding) | binding to the mA3AR (mA3AR; result in words) | SMILES |
| --- | --- | --- | --- | --- | --- | --- | --- | --- | --- | --- | --- |
| 33% | 0% | 2.1 nM and 2.09 nM | 4 fold | 24.6 ± 17.6 nM | 2% | – | – | – | – | – | Nc1nc2c(cnn2CCCc2ccc(OCC(=O)NCCCCNC(=O)CCCCCNC(=O)COc3ccc(/C=C/C4=[N+]5C(=Cc6ccc(-c7cccs7)n6[B-]5(F)F)C=C4)cc3)cc2)c2nc(-c3ccco3)nn12 [compound 11] |
| 32% | 0% | 585 nM | 4 fold | 30.3 ± 4.9 nM | 5% | – | – | – | – | – | CCN(CC)CC.CCN(CC)CC.N=c1ccc2c(-c3ccc(C(=O)NCCCCNC(=O)COc4ccc(CCCn5ncc6c5nc(N)n5nc(-c7ccco7)nc65)cc4)cc3C(=O)O)c3ccc(N)c(S(=O)(=O)O)c3oc-2c1S(=O)(=O)O [compound 12] |
| – | 21% | 64.1 nM | – | 6.2 nM | 4% | 2660 ± 1250 nM | insignificant | 671 fold | 426 fold | insignificant | N.Nc1nc2c(cnn2CCCc2ccc(OCc3ccc(S(=O)(=O)O)cc3)cc2)c2nc(-c3ccco3)nn12 [compound 13] |
